Literature values, collected in patent US20140171372A1, “Treatments for Alzheimer's disease” (priority 2012, published 2014).

Legend:
[1] = radiolabeled, injected systemically into animals
[2] = treatment of spinal injury, Parkinson disease and AD
AD patients = conditions: intracerebroventricular injection, limited number of AD patients

Solanezumab
outcome of clinical trial in AD (patients): failed

GM1
distribution after systemic injection [1]: reach neuronal synapses and neuromuscular junctions | neuroprotective effect in animal models (animal models): neuroprotective | tolerability in Human [2]: well tolerated | clinical improvement in AD patients (AD patients): some degree of improvement | neuroprotective effect in cultured cells (cultured cells): neuroprotective

CCCCCCCCCCCCC/C=C/C(O)C(COC1OC(CO)C(OC2OC(CO)C(OC3OC(CO)C(O)C(OC4OC(CO)C(O)C(O)C4O)C3NC(C)=O)C(OC3(C(=O)O)CC(O)C(NC(C)=O)C(C(O)C(O)CO)O3)C2O)C(O)C1O)NC(=O)C(Cl)Cl (stereo not drawn) [LIGA20]
neuroprotective effect in animal models (animal models): neuroprotective | neuroprotective effect in cultured cells (cultured cells): neuroprotective | protective effects relative to GM1 (cultured cells; cultured cells and animal models, compared with GM1): more potent protective effects than GM1
